Laboratory results as given in patent publication US11236055B2 (Venenum Biodesign, LLC, priority 2016, dated 2022).

Assays:
[1] = Pharmacokinetic profile in mice; type: in vivo; settings: mouse; fasted male Hilltop mice, 10 mg/kg oral gavage, plasma, mean of three mice
Method in brief: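 Fasted 8-week-old male Hilltop mice received 10 mg/kg by oral gavage in 20% PEG400/80% 0.5% CMC + 0.25% Tween-80. Plasma was sampled at 0–4 h, with at most 3 draws per mouse, and measured by LC-MS/MS (0.1–500 ng/mL standards). Cmax and AUC were derived non-compartmentally; values are means of three mice.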

human TGR5 receptor = molecular target: T1, human TGR5 receptor (Homo sapiens, UniProt Q8TDU6); test: Human TGR5 cAMP production assay; type: cell-based; settings: human TGR5, luminescent cAMP assay; coded A-D; read-out: Human TGR5 Lum. cAMP Activity (EC50)
T1 construct: host or cells: CHO-K1 (hTGR5-CHO cells)
T1 sequence (Q8TDU6 1-330): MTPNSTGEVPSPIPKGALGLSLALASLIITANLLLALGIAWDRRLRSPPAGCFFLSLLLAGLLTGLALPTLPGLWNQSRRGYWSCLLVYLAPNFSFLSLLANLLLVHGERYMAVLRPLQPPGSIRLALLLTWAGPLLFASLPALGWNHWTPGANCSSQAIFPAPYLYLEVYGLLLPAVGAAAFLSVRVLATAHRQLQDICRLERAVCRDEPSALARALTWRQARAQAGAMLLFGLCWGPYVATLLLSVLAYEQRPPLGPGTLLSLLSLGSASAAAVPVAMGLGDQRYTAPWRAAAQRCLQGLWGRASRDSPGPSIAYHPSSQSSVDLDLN
Method in brief: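 Intracellular cAMP read by luminescent enzyme-complementation (XS+) after overnight development, following 1 h room-temperature compound treatment of hTGR5-CHO-K1 cells in IBMX plus anti-cAMP antibody. Compounds tested as half-log dilution series; EC50 derived.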

[2] = test system: GLP-1 levels in the blood of male C57BL/6NTac mice; test: In vivo mouse GLP-1 study, single oral dose; settings: 10 mg/kg oral, 4 h post-dose, sitagliptin 3 mg/kg pre-dose
Description: In Vivo Mouse GLP-1 Study
12-14 week old male C57BL/6NTac (Taconic) mice were divided into experimental groups (n=6) by randomizing mice based on pre-fasting body weight and then were fasted overnight. On experiment day, all mice were dosed with 3 mg/kg sitagliptin via oral gavage exactly 1 hour before oral gavage dosing of vehicle (0.5% carboxymethylcellulose (medium viscosity)+0.25% Tween-80) or 10 mg/kg compound in vehicle. Four (4) hours following the administration of compound, blood was collected via cardiac puncture. For the GLP-1 assay, 200-250 μL of blood was placed in an EDTA K^2+ tube containing 5 μL of 40 mg/mL aprotinin (Sigma A1153) and 1 μL of 10 mM sitagliptin (Sigma S8576) and plasma was separated by centrifugation. Plasma samples were stored at −20° C. until analysis. The active form of GLP-1 [GLP-1 (7-36) amide] was analyzed using Meso Scale Discovery System according to the manufacturer's directions (item number K150HYC). Values of p<0.05 are considered statistically significant.
The active GLP-1 assay results from the mice in vivo study are shown in Table 36 and FIG. 1, expressed as fold change over vehicle.

Row | Structure (SMILES) | Cmax [1] | EC50 (human TGR5 receptor) | Fold Increase (active GLP-1, fold change over vehicle) [2]
1 | CCc1cnccc1-c1cccc(C(C)(C)N(CCCC(=O)NCCS(=O)(=O)O)S(=O)(=O)c2ccccc2C(F)(F)F)c1 [Compound 20, 2-(4-(N-(2-(3-(3-ethylpyridin-4-yl)phenyl)propan-2-yl)-2-(trifluoromethyl)-phenylsulfonamido)butanamido)ethanesulfonic acid] | 5 ng/mL | < 100 nM | 1.0
2 | Cc1cnccc1-c1cccc(C(C)(C)N(CCCC(=O)NCCS(=O)(=O)NCC(=O)O)S(=O)(=O)c2cccc(Cl)c2C)c1 [Compound 20AW, (4-(3-chloro-2-methyl-N-(2-(3-(3-methylpyridin-4-yl)phenyl)propan-2-yl)phenylsulfonamido)-N-butanamidoethylsulfonamido)acetic acid] | 2.8 ng/mL | < 100 nM | 1.1
3 | CCc1cnccc1-c1cccc([C@H](C)N(CCCC(=O)NCCCS(=O)(=O)O)S(=O)(=O)c2cccc(Cl)c2C)c1 [Compound 20AM, (S)-3-(4-(3-chloro-N-(1-(3-(3-ethylpyridin-4-yl)phenyl)ethyl)-2-methylphenylsulfonamido)butanamido)propane-1-sulfonic acid] | 0.9 ng/mL | < 100 nM | 2.3
4 | CCc1cnccc1-c1cccc([C@H](C)N(CCCC(=O)NCCS(=O)(=O)O)S(=O)(=O)c2cccc(Cl)c2C)c1 [Compound 21AQ, (S)-2-(4-(3-chloro-N-(1-(3-(3-ethylpyridin-4-yl)phenyl)ethyl)-2-methylphenylsulfonamido)butanamido)ethanesulfonic acid] | 4.2 ng/mL | < 100 nM | 2.0
5 | CCc1cnccc1-c1cccc([C@H](C)N(CCCC(=O)NCCS(=O)(=O)O)S(=O)(=O)c2ccccc2C(F)(F)F)c1 [Compound 20BF, (S)-2-(4-(N-(1-(3-(3-ethylpyridin-4-yl)phenyl)ethyl)-2-(trifluoromethyl)phenylsulfonamido)butanamido)ethanesulfonic acid] | 0.8 ng/mL | < 100 nM | 2.9
6 | CCc1cnccc1-c1cccc([C@H](C)N(CCCC(=O)NCCS(=O)(=O)NCC(=O)O)S(=O)(=O)c2cccc(Cl)c2C)c1 [Compound 21AT, (S) 2-(3-(4-(3-chloro-2-methyl-N-(1-(3-(3-ethylpyridin-4-yl)phenyl)ethyl)phenylsulfonamido)butanamido)ethylsulfonamido)acetic acid] | 1.6 ng/mL | < 100 nM | 4.2
7 | Cc1cnccc1-c1cccc([C@H](C)N(CCCC(=O)NCCS(=O)(=O)NCCCC(=O)O)S(=O)(=O)c2ccccc2C(F)(F)F)c1 [Compound 20BK] | 0.4 ng/mL | < 100 nM | 1.3
8 | Cc1cnccc1-c1cccc(C(C)(C)N(CCCC(=O)NCCS(=O)(=O)O)S(=O)(=O)c2ccccc2C(F)(F)F)c1 [Compound 20AA, 2-(4-(N-(2-(3-(3-methylpyridin-4-yl)phenyl)propan-2-yl)-2-(trifluoromethyl)phenylsulfonamido)butanamido)ethanesulfonic acid] | 7.2 ng/mL | < 100 nM | 3.3
9 | Cc1cnccc1-c1cccc(C(C)(C)N(CCCC(=O)NCC(=O)O)S(=O)(=O)c2cccc(Cl)c2C)c1 [Compound 21AB, 2-(4-(3-chloro-2-methyl-N-(2-(3-(3-methylpyridin-4-yl)phenyl)propan-2-yl)phenylsulfonamido)butanamido)acetic acid] | 19.4 ng/mL | < 100 nM | 3.0
10 | Cc1cnccc1-c1cccc(C(C)(C)N(CCCC(=O)NCCCS(=O)(=O)O)S(=O)(=O)c2cccc(Cl)c2C)c1 [Compound 20AD, 3-(4-(3-chloro-2-methyl-N-(2-(3-(3-methylpyridin-4-yl)phenyl)propan-2-yl)phenylsulfonamido)butanamido)propane-1-sulfonic acid] | 2.5 ng/mL | < 100 nM | 1.9
11 | CCc1cnccc1-c1cccc([C@H](C)N(CCCC(=O)NCCS(=O)(=O)NCC(=O)O)S(=O)(=O)c2ccccc2C(F)(F)F)c1 [Compound 20BG] | 0.3 ng/mL | < 100 nM | 4.4
12 | Cc1cnccc1-c1cccc([C@H](C)N(CCCCC(=O)NCCS(=O)(=O)NCC(=O)O)S(=O)(=O)c2ccccc2C(F)(F)F)c1 [Compound 20BL, (S) 2-(4-(N-(1-(3-(3-methylpyridin-4-yl)phenyl)ethyl)-2-(trifluoromethyl)phenylsulfonamidopentanamido)ethylsulfonamido)acetic acid] | 1.2 ng/mL | < 100 nM | 2.1
13 | Cc1cnccc1-c1cccc(C(C)(C)N(CCCC(=O)NC[C@@H](O)[C@H](O)[C@@H](O)[C@@H](O)CO)S(=O)(=O)c2cccc(Cl)c2C)c1 [Compound 20AF, 4-(3-chloro-2-methyl-N-(2-(3-(3-methylpyridin-4-yl)phenyl)propan-2-yl)phenylsulfonamido)-N-((2R,3S,4S,5S)-2,3,4,5,6-pentahydroxyhexyl)butanamide] | 5.2 ng/mL | < 100 nM | 0.8
14 | CCc1cnccc1-c1cccc(C(C)(C)N(CCCC(=O)NCCS(=O)(=O)O)S(=O)(=O)c2cccc(Cl)c2C)c1 [Compound 20AC, 2-(4-(3-chloro-N-(2-(3-(3-ethylpyridin-4-yl)phenyl)propan-2-yl)-2-methylphenylsulfonamido)butanamido)ethanesulfonic acid] | 7.8 ng/mL | < 100 nM | 1.2
